Laboratory results as given in article PMC11547513, “Design, Synthesis and Biological Activity Evaluation of β-Carboline Derivatives Containing Nitrogen Heterocycles” (Molecules, 2024).
Values joined by “and” are separate entries in the source; they are usually repeats but may differ in a detail not shown here. Equal values may be shown once. Read-outs that look alike come from different tables or passages of the source.

Tests used:
[1] = system: PC-3 cells; assay: Colony formation assay; type: cell-based, human; settings: Figure 3A
[2] = system: PC-3 cells; assay: Wound healing assay; type: cell-based, human; settings: 24 h, control group 46.41%
Experimental: Given that cell migration plays a pivotal role in tumor cell invasion, to further validate the impact of compound 8q on PC-3 cell motility, a wound healing assay was conducted. […] These findings underscore the potent inhibitory effect of compound 8q on the motility of PC-3 cells. […]
(§1) a wound healing assay was performed using the method we previously reported1. In short, PC-3 cells were seeded in a six-well plate at a density of 10 × 105 and incubated at a constant temperature of 37 ℃ and 5% CO2 for 24 h. Then the pipette tip was used to create a uniform wound on the surface of cells. Subsequently, after cleaning twice with PBS, the scratch healing of the 8q treatment group and the positive drug treatment […]
(§2) was used to measure and quantify cell migration. […]

[3] = system: PC-3 cells; assay: Annexin V-FITC/PI apoptosis, flow cytometry; type: cell-based, human; settings: 10 μM
Description: (§3) Apoptosis is an important target for antitumor therapy. To explore the antitumor mechanism of compound 8q, cell apoptosis was detected using flow cytometry. […] Moreover, reactive oxygen species (ROS) play a significant role in cell growth, differentiation and apoptosis. Excessive ROS can cause oxidative damage and lead to cell apoptosis. […]
2.3.The effect of compound 8q on cell apoptosis
We used Annexin V-FITC/ PI double staining to evaluate cellular apoptosis via flow cytometry to figure out if apoptosis participates in the inhibition of cell growth.
PC-3 cells were seeded in a six-well plate at a density of 3 × 105, and cultured at 37 ℃ and 5% CO2 for 24 h before adding 10 μM. 20 μM and 30 μM compound 8q and 30 μM Harmine to each well. After 48 h, the cells were collected and stained and incubated flowing the manufacturer ’s protocol of the Annexin V-FITC/PI Apoptosis Detection Kit (Solarbio, Beijing, China). After completion, the cells were immediately detected on the Flow Cytometry (Solarbio, Beijing, China). The experimental results were processed using Flow Jo and Prism 7.04 software. […]

[4] = system: PC-3 cells; assay: Intracellular ROS assay (DCFH-DA, flow cytometry); type: cell-based, human; settings: 10 μM, 24 h; negative control MFI 19.8
Experimental: as §3, §1, §2
PC-3 cells were seeded in a six-well plate at a density of 3 × 105, and cultured at 37 ℃ and 5% CO2 for 24 h before adding 10 μM. […] After completion, the cells were immediately detected on the Flow Cytometry (Solarbio, Beijing, China). […]
at 37 ° C for 20 min. Subsequently, the staining solution was wash off with basic culture medium and detected the fluorescence intensity using the flow cytometer. The data was analyzed and obtained through Flow Jo and Prism 7.04 software. […]
(§4) The distribution of cycles was analyzed by Flow Jo and Prism 7.04 software. […]

[5] = system: PC-3 cells; assay: Cell cycle assay (PI, flow cytometry); type: cell-based, human; settings: 24 h; for Cell cycle distribution, S phase: negative control 20.8%; for Cell cycle distribution, G2/M phase: negative control 23.6%; for Cell cycle distribution, G0/G1 phase: negative control 50.6%
Experimental: To analyze the effect of compound 8q on cell cycle, the cycle of PC-3 cells was detected after being treated with compound 8q for 24 h (Figure 5). […] In addition, Cyclin D1, a cell cycle-related protein, is a key regulator of cycle progression, mainly regulating G1/S phase transition. […] In summary, compound 8q can arrest cells in the G0/G1 phase. […]
2.5. Cell cycle arrest of compound 8q on PC-3
To determine the effect of compound 8q on the cell cycle distribution of PC-3 cell, we used our previous method with slight modifications2. Briefly, cells were incubated in a six-well plate with a density of 3 × 105 at 37 ℃ and 5% CO2 for 24 h, followed by the addition of different concentrations of compound 8q for further incubation for 24 h.
Next, the cells were collected and washed twice with PBS. 75% anhydrous ethanol was used to immobilize the cells under overnight conditions at 4 ℃. Subsequently, PBS washed cells, and RNase from the cell cycle assay kit (Solarbio, Beijing, China) was added and incubated in a constant temperature (37 ℃) water bath for 30 min. Then PI was added under dark conditions and incubated at 4 ℃ for another half hour to detect.
as §4

[6] = system: A549 (human lung cancer cell); assay: MTT assay, in vitro cytotoxicity on A549
Description: (§5) Cells were purchased from the Cell Bank of the Chinese Academy of Sciences (Kunming, China).

[7] = system: K562 (human chronic myeloid leukemia cell); assay: MTT assay, in vitro cytotoxicity on K562
Description: as §5

[8] = system: T47D (human breast cancer cell); assay: MTT assay, in vitro cytotoxicity on T47D
Description: as §5

[9] = system: Hek-293T (human embryonic kidney cells); assay: MTT assay, in vitro cytotoxicity on normal Hek-293T; settings: read-out: Inhibitory Activity/% at 10 μM, Hek-293T
Description: as §5

For `COc1cc(-c2nc(-c3nnc(SCC(=O)Nc4ccc(CN5CCOCC5)cc4)o3)cc3c2[nH]c2ccccc23)cc(OC)c1OC` [Compound 8q, N-(4-(morpholinomethyl)phenyl)-2-((5-(1-(3,4,5-trimethoxyphenyl)-9H-pyrido[3,4-b]indol-3-yl)-1,3,4-oxadiazol-2-yl)thio)acetamide], the “Inhibition of colony formation (proliferation) of PC-3 cells” value [1] was “concentration-dependent manner”, the “Migration rate of PC-3 cells” value ([2]; 10 μM) was 29.56% and the “Migration rate of PC-3 cells” value ([2]; 20 μM) was 26.32%. For the same compound, the “Migration rate of PC-3 cells” value ([2]; 30 μM) was 19.99%, the “Total apoptosis rate in PC-3 cells” value ([3]; 48 h) was 63.23% and the “Annexin V-FITC/PI flow cytometry quadrant Q1” value ([3]; Figure 4A) was 0.35. The “Annexin V-FITC/PI flow cytometry quadrant Q2” value ([3]; Figure 4A) was 22.7, the “Annexin V-FITC/PI flow cytometry quadrant Q3” value ([3]; Figure 4A) was 32.9 and the “Annexin V-FITC/PI flow cytometry quadrant Q4” value ([3]; Figure 4A) was 44.1. For the same compound, the “ROS mean fluorescence intensity (MFI) value” [4] was 138, the “Cell cycle distribution, S phase” value ([5]; 10 μM) was 14.2% and the “Cell cycle distribution, G2/M phase” value ([5]; 10 μM) was 20.8%. The “Cell cycle distribution, G0/G1 phase” value ([5]; 10 μM) was 55.66% and 58.5%, the “Cell cycle distribution, S phase” value ([5]; 20 μM) was 13.0% and the “Cell cycle distribution, G2/M phase” value ([5]; 20 μM) was 18.4%. For the same compound, the “Cell cycle distribution, G0/G1 phase” value ([5]; 20 μM) was 60.83% and 63.0%, the “Cell cycle distribution, S phase” value ([5]; 30 μM) was 9.01% and the “Cell cycle distribution, G2/M phase” value ([5]; 30 μM) was 20.5%. The “Cell cycle distribution, G0/G1 phase” value ([5]; 30 μM) was 62.03% and 64.9%, the melting point was 181.8 to 182.7 °C and the IC50 ([6]; A549, read-out: IC50 (Mean ± S.D.), A549) was 26.2 ± 1.51 µM. For the same compound, the inhibition at 10 µM ([6]; A549, read-out: Inhibitory Activity/% at 10 μM, A549) was 32.9 ± 4.3%, the IC50 ([7]; Homo sapiens, K562, read-out: IC50 (Mean ± S.D.), K562, average of three replicates) was 11.2 µM and the inhibition at 10 µM ([7]; Homo sapiens, K562, read-out: Inhibitory Activity/% at 10 μM, K562) was 25.6 ± 14.9%. For the same compound, the IC50 ([7]; read-out: IC50 (Mean ± S.D.), K562, average of three replicates) was 11.7 ± 0.21 µM, the IC50 ([8]; read-out: IC50 (Mean ± S.D.), T47D) was 9.96 ± 0.63 µM and the inhibition at 10 µM ([8]; read-out: Inhibitory Activity/% at 10 μM, T47D) was 14.5 ± 7.43%. The inhibition at 10 µM [9] was 54.8 ± 0.99%.
